Source: paper PMC11239830, “Synthetic macrolides overcoming MLSBK-resistant pathogens” (Cell Discovery, 2024)
In brackets after ≈: the same amount, converted by molar mass. Read-outs that look alike come from different tables or passages of the source.

Tests used:
Assay in all cases: MIC, broth microdilution
[1] = test system: S. pyogenes; type: cell-based, Streptococcus pyogenes; conditions: S. pyogenes 12-206, c-ermTR
Experimental: (§1) MICs were determined by the microdilution method according to the Clinical and Laboratory Standards Institute guidelines. […] Finally, the 96-well plates were incubated at 37 °C for 16–20 h to observe and record the results. […] The assay for MICs was replicated at least three times.

[2] = test system: H. influenzae; type: cell-based, Haemophilus influenzae
Experimental: as §1

[3] = test system: S. pneumoniae; type: cell-based, Streptococcus pneumoniae
Experimental: as §1

[4] = test system: S. aureus; type: cell-based, Staphylococcus aureus
Experimental: as §1

[5] = Streptococcus pyogenes, read-out: MIC
[6] = Haemophilus influenzae, ATCC49247, H. influenzae ATCC49247, Azi-S, read-out: MIC
[7] = Streptococcus pneumoniae, ATCC49619, S. pneumoniae ATCC49619, Ery-S, read-out: MIC
[8] = Streptococcus pneumoniae, S. pneumoniae 07P390, c-ermB, read-out: MIC
[9] = Streptococcus pneumoniae, S. pneumoniae PU09, mef, read-out: MIC
[10] = Staphylococcus aureus, S. aureus 15B196, c-ermB, read-out: MIC
[11] = Staphylococcus aureus, S. aureus PU32, i-ermA, read-out: MIC

Compound | MIC [1, 5] | MIC [2, 6] | MIC [3, 7] | MIC [3, 8] | MIC [3, 9] | MIC [4, 10] | MIC [4, 11] | MIC [1] | MIC ([2]; H. influenzae ATCC49247, Azi-S) | MIC ([3]; S. pneumoniae 07P390, c-ermB) | MIC ([3]; S. pneumoniae ATCC49619, Ery-S) | MIC ([3]; S. pneumoniae PU09, mef) | MIC ([4]; S. aureus 15B196, c-ermB) | MIC ([4]; S. aureus PU32, i-ermA) | MIC ([3]; Streptococcus pneumoniae, S. pneumoniae 07P390, c-ermB) | MIC ([4]; Staphylococcus aureus, S. aureus 15B196, c-ermB) | MIC ([4]; Staphylococcus aureus, S. aureus PU32, i-ermA)
CC[C@H]1OC(=O)[C@H](C)[C@@H](OC(=O)NCCCCCCC#Cc2ccc3cc(C(=O)O)cnc3c2)[C@H](C)[C@@H](O[C@@H]2O[C@H](C)C[C@H](N(C)C)[C@H]2O)[C@](C)(OC)C[C@@H](C)C(=O)[C@H](C)[C@H]2NC(=O)O[C@@]21C [88j] | 128 µg/mL (≈ 137 µM) | 128 µg/mL (≈ 137 µM) | 0.5 µg/mL (≈ 0.534 µM) | > 256 µg/mL | 1 µg/mL (≈ 1.07 µM) | > 256 µg/mL | 8 µg/mL (≈ 8.54 µM) | – | – | – | – | – | – | – | – | – | –
CC[C@H]1OC(=O)[C@H](C)[C@@H](OC(=O)NCCCCCCC#Cc2ccc3c(=O)c(C(=O)O)cn(C)c3c2)[C@H](C)[C@@H](O[C@@H]2O[C@H](C)C[C@H](N(C)C)[C@H]2O)[C@](C)(OC)C[C@@H](C)NC(=O)[C@H](C)[C@@H](O)[C@]1(C)O [126g] | 2 µg/mL (≈ 2.09 µM) | 4 µg/mL (≈ 4.18 µM) | 0.06 µg/mL (≈ 0.0627 µM) | 2 µg/mL (≈ 2.09 µM) | 0.12 µg/mL (≈ 0.125 µM) | 16 µg/mL (≈ 16.7 µM) | 2 µg/mL (≈ 2.09 µM) | – | – | – | – | – | – | – | – | – | –
CC[C@H]1OC(=O)[C@H](C)[C@@H](OC(=O)NCCCCCCc2ccc3c(c2)c(=O)c(C(N)=O)cn3C2CC2)[C@H](C)[C@@H](O[C@@H]2O[C@H](C)C[C@H](N(C)C)[C@H]2O)[C@](C)(OC)C[C@@H](C)C(=NOC)[C@H](C)[C@H]2OC(=O)O[C@@]21C [60b] | – | – | – | – | – | – | – | 32 µg/mL (≈ 32.1 µM) | > 256 µg/mL | 32 µg/mL (≈ 32.1 µM) | 0.25 µg/mL (≈ 0.25 µM) | 1 µg/mL (≈ 1 µM) | > 256 µg/mL | 128 µg/mL (≈ 128 µM) | – | – | –
CC[C@H]1OC(=O)[C@H](C)[C@@H](OC(=O)NCCOCCC#Cc2ccc3c(c2)c(=O)c(C(=O)O)cn3C2CC2)[C@H](C)[C@@H](O[C@@H]2O[C@H](C)C[C@H](N(C)C)[C@H]2O)[C@](C)(O)C[C@@H](C)CN(C)[C@H](C)[C@H]2OC(=O)O[C@@]21C [116a] | – | – | – | – | – | – | – | 512 µg/mL (≈ 521 µM) | 64 µg/mL (≈ 65.1 µM) | 512 µg/mL (≈ 521 µM) | 4 µg/mL (≈ 4.07 µM) | 8 µg/mL (≈ 8.14 µM) | 512 µg/mL (≈ 521 µM) | 128 µg/mL (≈ 130 µM) | – | – | –
CC[C@H]1OC(=O)[C@H](C)[C@@H](OC(=O)NCCCCCC#Cc2ccc3c(=O)c(C(=O)NO)cn(C4CC4)c3c2)[C@H](C)[C@@H](O[C@@H]2O[C@H](C)C[C@H](N(C)C)[C@H]2O)[C@](C)(OC)C[C@@H](C)C(=NOC)[C@H](C)[C@H]2OC(=O)O[C@@]21C [57e] | – | – | – | – | – | – | – | 128 µg/mL (≈ 125 µM) | 32 µg/mL (≈ 31.2 µM) | 2 µg/mL (≈ 1.95 µM) | 0.016 µg/mL (≈ 0.0156 µM) | 0.5 µg/mL (≈ 0.488 µM) | 128 µg/mL (≈ 125 µM) | 16 µg/mL (≈ 15.6 µM) | – | – | –
CC[C@H]1OC(=O)[C@H](C)[C@@H](OC(=O)NCCCC#Cc2ccc3c(=O)c(C(=O)O)cn(C4CC4)c3c2)[C@H](C)[C@@H](O[C@@H]2O[C@H](C)C[C@H](N(C)C)[C@H]2O)[C@](C)(O)C[C@@H](C)CN(C)[C@H](C)[C@H]2OC(=O)O[C@@]21C [108c] | – | – | – | – | – | – | – | 64 µg/mL (≈ 67.1 µM) | 8 µg/mL (≈ 8.39 µM) | 128 µg/mL (≈ 134 µM) | 0.25 µg/mL (≈ 0.262 µM) | 1 µg/mL (≈ 1.05 µM) | 512 µg/mL (≈ 537 µM) | 64 µg/mL (≈ 67.1 µM) | – | – | –
CCC1OC(=O)C(C)C(OC(=O)NCCCOCCC#Cc2ccc3c(=O)c(C(=O)O)cn(C4CC4)c3c2)C(C)C(OC2OC(C)CC(N(C)C)C2O)C(C)(OC)CC(C)C(=NOC)C(C)C2OC(=O)OC12C (stereo not shown) [72c] | 1 µg/mL (≈ 0.975 µM) | 16 µg/mL (≈ 15.6 µM) | ≤ 0.008 µg/mL | 0.12 µg/mL (≈ 0.117 µM) | ≤ 0.008 µg/mL | 32 µg/mL (≈ 31.2 µM) | 2 µg/mL (≈ 1.95 µM) | – | – | – | – | – | – | – | – | – | –
CCC1OC(=O)C(C)C(OC(=O)NCCCCCCCc2ccc3c(c2)c(=O)c(C(=O)O)cn3C2CC2)C(C)C(OC2OC(C)CC(N(C)C)C2O)C(C)(OC)CC(C)C(=NOC)C(C)C2OC(=O)OC12C (stereo not shown) [61a] | 32 µg/mL (≈ 31.6 µM) | > 256 µg/mL | 0.12 µg/mL (≈ 0.118 µM) | 64 µg/mL (≈ 63.2 µM) | 0.5 µg/mL (≈ 0.493 µM) | 256 µg/mL (≈ 253 µM) | 8 µg/mL (≈ 7.9 µM) | – | – | – | – | – | – | – | – | – | –
CC[C@H]1OC(=O)[C@H](C)[C@@H](OC(=O)NCCCOCCC#Cc2ccc3c(c2)c(=O)c(C(=O)O)cn3C2CC2)[C@H](C)[C@@H](O[C@@H]2O[C@H](C)C[C@H](N(C)C)[C@H]2O)[C@](C)(O)C[C@@H](C)CN(C)[C@H](C)[C@H]2OC(=O)O[C@@]21C [117a] | – | – | – | – | – | – | – | 512 µg/mL (≈ 513 µM) | 32 µg/mL (≈ 32.1 µM) | 512 µg/mL (≈ 513 µM) | 1 µg/mL (≈ 1 µM) | 2 µg/mL (≈ 2.01 µM) | 512 µg/mL (≈ 513 µM) | 32 µg/mL (≈ 32.1 µM) | – | – | –
CCC1OC(=O)C(C)C(OC(=O)NCCCCCCCc2ccc3c(=O)c(C(N)=O)cn(C4CC4)c3c2)C(C)C(OC2OC(C)CC(N(C)C)C2O)C(C)(OC)CC(C)C(=NOC)C(C)C2OC(=O)OC12C (stereo not shown) [61d] | 16 µg/mL (≈ 15.8 µM) | > 256 µg/mL | 0.12 µg/mL (≈ 0.119 µM) | 16 µg/mL (≈ 15.8 µM) | 1 µg/mL (≈ 0.988 µM) | > 256 µg/mL | 64 µg/mL (≈ 63.2 µM) | – | – | – | – | – | – | – | – | – | –
CC[C@H]1OC(=O)[C@H](C)[C@@H](OC(=O)NCCCCCCCCc2ccc3c(c2)c(=O)c(C(N)=O)cn3C2CC2)[C@H](C)[C@@H](O[C@@H]2O[C@H](C)C[C@H](N(C)C)[C@H]2O)[C@](C)(OC)C[C@@H](C)C(=NOC)[C@H](C)[C@H]2OC(=O)O[C@@]21C [62b] | – | – | – | – | – | – | – | 16 µg/mL (≈ 15.6 µM) | > 256 µg/mL | 32 µg/mL (≈ 31.2 µM) | 0.5 µg/mL (≈ 0.487 µM) | 4 µg/mL (≈ 3.9 µM) | > 256 µg/mL | 128 µg/mL (≈ 125 µM) | – | – | –
CCC1OC(=O)C(C)C(OC(=O)NCCCCCCCc2ccc3c(=O)c(C(=O)O)cn(C4CC4)c3c2)C(C)C(OC2OC(C)CC(N(C)C)C2O)C(C)(OC)CC(C)C(=NOC)C(C)C2OC(=O)OC12C (stereo not shown) [61c] | 2 µg/mL (≈ 1.97 µM) | > 256 µg/mL | ≤ 0.008 µg/mL | 0.5 µg/mL (≈ 0.493 µM) | ≤ 0.008 µg/mL | 64 µg/mL (≈ 63.2 µM) | 8 µg/mL (≈ 7.9 µM) | – | – | – | – | – | – | – | – | – | –
CC[C@H]1OC(=O)[C@H](C)[C@@H](OC(=O)NCCCCCCC#Cc2ccc3c(=O)c(C(=O)O)cn(C4CC4)c3c2)[C@H](C)[C@@H](O[C@@H]2O[C@H](C)C[C@H](N(C)C)[C@H]2O)[C@](C)(OC)C[C@@H](C)C(=NOC)[C@H](C)[C@H]2OC(=O)O[C@@]21C [58c] | – | – | – | – | – | – | – | 2 µg/mL (≈ 1.95 µM) | 32 µg/mL (≈ 31.3 µM) | 1 µg/mL (≈ 0.977 µM) | 0.25 µg/mL (≈ 0.244 µM) | 0.25 µg/mL (≈ 0.244 µM) | 64 µg/mL (≈ 62.5 µM) | 8 µg/mL (≈ 7.82 µM) | – | – | –
CCC1OC(=O)C(C)C(OC(=O)NCCCCCC#Cc2ccc3c(=O)c(C(=O)O)cn(C4CC4)c3c2)C(C)C(OC2OC(C)CC(N(C)C)C2O)C(C)(OC)CC(C)C(=NOC)C(C)C2OC(=O)OC12C (stereo not shown) [57c] | 1 µg/mL (≈ 0.991 µM) | 8 µg/mL (≈ 7.93 µM) | ≤ 0.008 µg/mL | 0.5 µg/mL (≈ 0.495 µM) | 0.06 µg/mL (≈ 0.0595 µM) | 16 µg/mL (≈ 15.9 µM) | 4 µg/mL (≈ 3.96 µM) | – | – | – | – | – | – | – | – | – | –
CC[C@H]1OC(=O)[C@H](C)[C@@H](O[C@H]2C[C@@](C)(OC)[C@@H](O)[C@H](C)O2)[C@H](C)[C@@H](O[C@@H]2O[C@H](C)C[C@H](N(C)C)[C@H]2O)[C@](C)(O)C[C@@H](C)CN(C)[C@H](C)[C@@H](O)[C@]1(C)O [azithromycin, reference compound] | > 256 µg/mL | 2 µg/mL (≈ 2.67 µM) | 0.25 µg/mL (≈ 0.334 µM) | – | 8 µg/mL (≈ 10.7 µM) | – | – | – | – | – | – | – | – | – | > 256 µg/mL | > 256 µg/mL | > 256 µg/mL
CC[C@H]1OC(=O)[C@H](C)[C@@H](OC(=O)NCCCOCCC#Cc2ccc3cc(C(=O)O)cnc3c2)[C@H](C)[C@@H](O[C@@H]2O[C@H](C)C[C@H](N(C)C)[C@H]2O)[C@](C)(OC)C[C@@H](C)C(=O)[C@H](C)[C@H]2NC(=O)O[C@@]21C [95j] | 128 µg/mL (≈ 136 µM) | 128 µg/mL (≈ 136 µM) | 1 µg/mL (≈ 1.06 µM) | > 256 µg/mL | 8 µg/mL (≈ 8.52 µM) | > 256 µg/mL | 64 µg/mL (≈ 68.1 µM) | – | – | – | – | – | – | – | – | – | –
